Reference: US20240360134A1, “PYRAZOLOPYRIMIDINES AND THEIR USES AS PDGFR INHIBITORS” (priority 2021, published 2024)
Read-outs that look alike come from different tables or passages of the source.

Key:
[1] = molecular target: PDGFRβ (Rattus norvegicus (Rat), UniProt Q05030); assay: PDGFRβ Cellular Assay (PDGFRb P-Y751 HTRF, PDGF-BB stimulated A10 cells); assay type: cell-based
In short: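 Rat A10 cells plated overnight were treated with compound for 3 h, stimulated with rat PDGF-BB (working stock 100 ng/mL in 10% FBS medium) for 10 min, then lysed.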

[2] = molecular target: Tb-labeled inactive PDGFRβ (Homo sapiens (Human), UniProt P09619); assay: biochemical; assay type: binding
Sequence of Tb-labeled inactive PDGFRβ (P09619 whole entry, looked up): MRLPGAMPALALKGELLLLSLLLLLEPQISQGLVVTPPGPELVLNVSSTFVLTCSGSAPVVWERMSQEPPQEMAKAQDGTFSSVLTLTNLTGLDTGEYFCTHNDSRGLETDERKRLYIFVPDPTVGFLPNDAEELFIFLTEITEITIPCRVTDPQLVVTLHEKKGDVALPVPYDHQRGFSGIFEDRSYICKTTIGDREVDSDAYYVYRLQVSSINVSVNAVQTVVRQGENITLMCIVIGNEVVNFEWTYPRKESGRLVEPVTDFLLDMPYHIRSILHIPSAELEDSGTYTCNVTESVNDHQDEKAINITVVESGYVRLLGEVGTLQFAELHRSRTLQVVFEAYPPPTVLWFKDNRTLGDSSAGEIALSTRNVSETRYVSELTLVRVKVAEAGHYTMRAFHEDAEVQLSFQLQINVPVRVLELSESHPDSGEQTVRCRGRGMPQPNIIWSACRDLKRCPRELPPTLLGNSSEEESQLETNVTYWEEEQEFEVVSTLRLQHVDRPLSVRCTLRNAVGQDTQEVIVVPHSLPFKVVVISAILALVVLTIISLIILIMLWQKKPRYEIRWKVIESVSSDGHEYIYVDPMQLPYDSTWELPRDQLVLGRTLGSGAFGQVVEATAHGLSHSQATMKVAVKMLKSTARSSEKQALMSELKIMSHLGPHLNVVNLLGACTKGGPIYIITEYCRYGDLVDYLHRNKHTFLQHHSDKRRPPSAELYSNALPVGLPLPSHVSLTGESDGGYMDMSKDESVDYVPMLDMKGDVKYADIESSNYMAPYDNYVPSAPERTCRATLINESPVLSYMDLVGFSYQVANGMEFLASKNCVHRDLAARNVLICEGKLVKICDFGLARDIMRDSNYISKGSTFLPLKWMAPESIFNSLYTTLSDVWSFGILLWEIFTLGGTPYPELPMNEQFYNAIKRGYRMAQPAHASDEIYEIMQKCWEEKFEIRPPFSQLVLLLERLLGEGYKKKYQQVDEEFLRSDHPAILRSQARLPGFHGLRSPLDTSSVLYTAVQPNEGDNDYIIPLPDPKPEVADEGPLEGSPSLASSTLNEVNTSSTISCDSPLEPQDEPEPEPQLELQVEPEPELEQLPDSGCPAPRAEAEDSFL

[3] = molecular target: VEGFR2, unphosphorylated (Homo sapiens (Human), UniProt P35968); assay: VEGFR ADP GLO assay; assay type: biochemical; settings: 5 nM VEGFR2, 1.2 mM ATP, 1 mg/mL Srctide, 180 min
Sequence of VEGFR2, unphosphorylated (P35968 whole entry, looked up): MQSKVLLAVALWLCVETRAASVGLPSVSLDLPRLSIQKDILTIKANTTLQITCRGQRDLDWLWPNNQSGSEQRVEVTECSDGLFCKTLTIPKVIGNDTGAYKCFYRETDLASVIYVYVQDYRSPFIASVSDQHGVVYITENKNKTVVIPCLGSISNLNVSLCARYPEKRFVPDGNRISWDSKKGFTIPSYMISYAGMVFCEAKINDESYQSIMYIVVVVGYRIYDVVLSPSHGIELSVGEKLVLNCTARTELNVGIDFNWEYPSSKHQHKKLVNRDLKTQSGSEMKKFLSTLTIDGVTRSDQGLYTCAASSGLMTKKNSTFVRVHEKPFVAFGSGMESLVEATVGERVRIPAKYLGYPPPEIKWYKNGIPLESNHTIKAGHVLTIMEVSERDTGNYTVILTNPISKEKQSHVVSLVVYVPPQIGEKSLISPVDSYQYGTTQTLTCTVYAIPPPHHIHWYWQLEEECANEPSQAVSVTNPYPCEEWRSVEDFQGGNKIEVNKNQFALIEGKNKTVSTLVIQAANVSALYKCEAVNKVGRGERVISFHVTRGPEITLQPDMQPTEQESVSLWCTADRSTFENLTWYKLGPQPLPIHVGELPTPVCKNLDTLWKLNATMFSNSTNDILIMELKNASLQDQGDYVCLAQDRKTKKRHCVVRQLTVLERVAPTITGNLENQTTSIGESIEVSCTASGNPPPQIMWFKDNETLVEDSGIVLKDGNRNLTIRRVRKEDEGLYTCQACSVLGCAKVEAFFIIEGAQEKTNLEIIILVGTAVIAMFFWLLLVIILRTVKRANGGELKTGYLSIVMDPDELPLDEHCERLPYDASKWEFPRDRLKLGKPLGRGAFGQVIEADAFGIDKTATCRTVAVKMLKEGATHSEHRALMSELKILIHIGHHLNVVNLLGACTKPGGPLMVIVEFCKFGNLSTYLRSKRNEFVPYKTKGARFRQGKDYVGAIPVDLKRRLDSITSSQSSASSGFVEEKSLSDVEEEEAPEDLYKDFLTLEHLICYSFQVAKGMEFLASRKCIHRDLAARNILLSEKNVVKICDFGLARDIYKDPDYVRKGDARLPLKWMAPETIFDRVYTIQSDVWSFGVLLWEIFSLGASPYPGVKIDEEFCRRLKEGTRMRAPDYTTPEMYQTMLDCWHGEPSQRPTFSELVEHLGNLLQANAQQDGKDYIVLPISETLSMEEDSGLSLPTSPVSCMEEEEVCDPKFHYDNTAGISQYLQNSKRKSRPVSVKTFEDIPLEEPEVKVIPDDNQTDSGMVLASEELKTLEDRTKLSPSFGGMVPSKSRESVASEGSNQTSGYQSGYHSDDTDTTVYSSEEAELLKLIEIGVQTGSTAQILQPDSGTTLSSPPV
In short: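 Luminescent ADP detection after a 180-min room-temperature reaction of srctide plus ATP (2 mg/mL and 2.4 mM in 2× mix) in pH 7.5 HEPES buffer with DTT, Pluronic and ovalbumin. Compounds, 11 points from 10 µM, first pre-incubated 30 min with enzyme (2× mix 10 nM). IC50s fitted after scaling between DMSO and 1 µM TAK-593 controls.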

[4] = molecular target: His6-TEV-PDGFRβ (557-1016) (Homo sapiens (Human), UniProt P09619); assay: PDGFRβ HTRF Assay; assay type: biochemical
Sequence of His6-TEV-PDGFRβ (557-1016) (P09619 whole entry, looked up): as the sequence (P09619 whole entry, looked up) above

[5] = A10 cells, 3 hours compound, 15 ng/mL PDGFbb for 10 minutes, read-out: PDGFR Cellular IC50
[6] = 800 μM ATP, 0.5 μM TK-substrate biotin peptide, 30 min pre-incubation, 3 hours reaction, read-out: PDGFR HTRF IC50

Sequence of PDGFRβ (Q05030 whole entry, looked up): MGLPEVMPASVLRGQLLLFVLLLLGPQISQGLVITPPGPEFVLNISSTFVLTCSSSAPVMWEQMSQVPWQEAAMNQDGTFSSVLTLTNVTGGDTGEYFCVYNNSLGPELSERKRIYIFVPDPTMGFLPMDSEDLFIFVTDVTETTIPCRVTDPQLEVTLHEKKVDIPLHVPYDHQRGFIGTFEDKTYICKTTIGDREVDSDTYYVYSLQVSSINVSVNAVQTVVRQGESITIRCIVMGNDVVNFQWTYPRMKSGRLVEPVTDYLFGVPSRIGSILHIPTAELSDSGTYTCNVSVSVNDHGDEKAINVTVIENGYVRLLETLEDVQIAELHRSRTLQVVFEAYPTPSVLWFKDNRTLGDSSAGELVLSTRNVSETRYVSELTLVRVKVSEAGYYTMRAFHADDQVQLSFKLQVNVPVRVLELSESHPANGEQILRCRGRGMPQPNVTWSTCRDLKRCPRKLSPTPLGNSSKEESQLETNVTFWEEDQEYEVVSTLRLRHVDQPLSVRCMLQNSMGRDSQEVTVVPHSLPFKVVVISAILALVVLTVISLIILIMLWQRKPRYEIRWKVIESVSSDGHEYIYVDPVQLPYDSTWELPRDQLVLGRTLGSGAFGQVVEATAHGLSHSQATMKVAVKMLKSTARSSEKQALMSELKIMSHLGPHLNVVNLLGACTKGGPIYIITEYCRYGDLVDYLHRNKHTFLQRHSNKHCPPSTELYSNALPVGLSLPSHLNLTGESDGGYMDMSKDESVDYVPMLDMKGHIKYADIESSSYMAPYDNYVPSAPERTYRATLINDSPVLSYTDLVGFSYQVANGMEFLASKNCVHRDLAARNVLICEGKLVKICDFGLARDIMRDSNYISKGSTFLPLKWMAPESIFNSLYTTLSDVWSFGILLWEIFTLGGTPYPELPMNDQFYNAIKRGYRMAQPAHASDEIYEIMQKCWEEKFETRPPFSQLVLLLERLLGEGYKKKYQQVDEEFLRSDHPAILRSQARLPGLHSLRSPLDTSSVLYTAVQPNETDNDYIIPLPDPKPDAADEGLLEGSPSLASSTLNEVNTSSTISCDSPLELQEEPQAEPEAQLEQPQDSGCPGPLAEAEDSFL

Row | SMILES | IC50 [1, 5] | IC50 ([2]; read-out: PDGFR Lantha IC50) | IC50 [3] | IC50 [4, 6] | IC50 [1] | IC50 [2] | IC50 [4]
1 | Cc1cc(Nc2ncc3c(Nc4cc(C(=O)NCCN5CCC[C@@H]5C)cnc4C)nn(C)c3n2)n(C)n1 [Example 158, (S)-5-((6-((1,3-dimethyl-1H-pyrazol-5-yl)amino)-1-methyl-1H-pyrazolo[3,4-d]pyrimidin-3-yl)amino)-6-methyl-N-(2-(2-methylpyrrolidin-1-yl)ethyl)nicotinamide] | 147 nM | 22.3 nM | > 7500 nM | 2.63 nM | – | – | –
2 | CC(=O)Nc1cc(Nc2ncc3c(Nc4cc(C(=O)NCCN5CCCC5(C)C)cnc4C)nn(C)c3n2)ccn1 [Example 100, 5-((6-((2-acetamidopyridin-4-yl)amino)-1-methyl-1H-pyrazolo[3,4-d]pyrimidin-3-yl)amino)-N-(2-(2,2-dimethylpyrrolidin-1-yl)ethyl)-6-methylnicotinamide] | 93.1 nM | 2.8 nM | 5420 nM | 0.39 nM | – | – | –
3 | COCCn1cc(Nc2ncc3c(Nc4cc(NC(=O)CN5CCC(C)(C)C5)cnc4C)nn(C)c3n2)cn1 [Example 129, 2-(3,3-dimethylpyrrolidin-1-yl)-N-(5-((6-((1-(2-methoxyethyl)-1H-pyrazol-4-yl)amino)-1-methyl-1H-pyrazolo[3,4-d]pyrimidin-3-yl)amino)-6-methylpyridin-3-yl)acetamide] | 2.4 nM | 1.3 nM | 1420 nM | 0.27 nM | – | – | –
4 | Cc1ncc(C(=O)NCCC2CCCCC2)cc1Nc1nn(C)c2nc(Nc3cncc(CC(=O)O)c3)ncc12 [Example 107, 2-(5-((3-((5-((2-cyclohexylethyl)carbamoyl)-2-methylpyridin-3-yl)amino)-1-methyl-1H-pyrazolo[3,4-d]pyrimidin-6-yl)amino)pyridin-3-yl)acetic acid] | > 2000 nM | 2.8 nM | 11 nM | 0.55 nM | – | – | –
5 | Cc1ncc(NC(=O)CN2CC[C@H](C)C2)cc1Nc1nn(C)c2nc(Nc3cnn(C)c3)ncc12 [Example 140, (S)—N-(6-methyl-5-((1-methyl-6-((1-methyl-1H-pyrazol-4-yl)amino)-1H-pyrazolo[3,4-d]pyrimidin-3-yl)amino)pyridin-3-yl)-2-(3-methylpyrrolidin-1-yl)acetamide] | 2.2 nM | 1.6 nM | > 7500 nM | 0.23 nM | – | – | –
6 | COCCn1cc(Nc2ncc3c(Nc4cc(NC(=O)CN5CCC56CCC6)cnc4C)nn(C)c3n2)cn1 [Example 130, N-(5-((6-((1-(2-methoxyethyl)-1H-pyrazol-4-yl)amino)-1-methyl-1H-pyrazolo[3,4-d]pyrimidin-3-yl)amino)-6-methylpyridin-3-yl)-2-(1-azaspiro[3.3]heptan-1-yl)acetamide] | 4.7 nM | 1.5 nM | > 7500 nM | 0.37 nM | – | – | –
7 | Cc1ncc(C(=O)NCCN2CCCC[C@H]2C)cc1Nc1nn(C)c2nc(Nc3cnn(C)c3)ncc12 [Example 82, (R)-6-methyl-5-((1-methyl-6-((1-methyl-1H-pyrazol-4-yl)amino)-1H-pyrazolo[3,4-d]pyrimidin-3-yl)amino)-N-(2-(2-methylpiperidin-1-yl)ethyl)nicotinamide] | – | – | > 7500 nM | – | 20.2 nM | 1.7 nM | 0.18 nM
8 | Cc1ncc(C(=O)NCCN2[C@H](C)COC[C@H]2C)cc1Nc1nn(C)c2nc(Nc3cnn(C)c3)ncc12 (relative stereo) [Example 94, N-(2-(trans-3,5-dimethylmorpholino)ethyl)-6-methyl-5-((1-methyl-6-((1-methyl-1H-pyrazol-4-yl)amino)-1H-pyrazolo[3,4-d]pyrimidin-3-yl)amino)nicotinamide] | 13.9 nM | 2.1 nM | 1170 nM | 0.33 nM | – | – | –
9 | Cc1ncc(NC(=O)CN(CCF)C2CCCC2)cc1Nc1nn(C)c2nc(Nc3cnn(C)c3)ncc12 [Example 133, 2-(cyclopentyl(2-fluoroethyl)amino)-N-(6-methyl-5-((1-methyl-6-((1-methyl-1H-pyrazol-4-yl)amino)-1H-pyrazolo[3,4-d]pyrimidin-3-yl)amino)pyridin-3-yl)acetamide] | 4.1 nM | 2.4 nM | 5550 nM | 0.44 nM | – | – | –
10 | Cc1ncc(C(=O)NCCN2CC(C)CC(C)C2)cc1Nc1nn(C)c2nc(Nc3cnn(C)c3)ncc12 (centres unmarked) [Example 87, N-(2-(3,5-dimethylpiperidin-1-yl)ethyl)-6-methyl-5-((1-methyl-6-((1-methyl-1H-pyrazol-4-yl)amino)-1H-pyrazolo[3,4-d]pyrimidin-3-yl)amino)nicotinamide] | 11.5 nM | 2.3 nM | > 7500 nM | 0.29 nM | – | – | –
11 | Cn1nc(Nc2cc(C(=O)NCCN3CCCC3(C)C)ccc2F)c2cnc(Nc3cncnc3)nc21 [Example 51, N-(2-(2,2-dimethylpyrrolidin-1-yl)ethyl)-4-fluoro-3-((1-methyl-6-(pyrimidin-5-ylamino)-1H-pyrazolo[3,4-d]pyrimidin-3-yl)amino)benzamide] | 17.2 nM | 9 nM | > 7500 nM | 0.87 nM | – | – | –
12 | Cc1cc(C(=O)NCCN2CCCC2(C)C)sc1Nc1nn(C)c2nc(Nc3cncnc3)ncc12 [Example 48, N-(2-(2,2-dimethylpyrrolidin-1-yl)ethyl)-4-methyl-5-((1-methyl-6-(pyrimidin-5-ylamino)-1H-pyrazolo[3,4-d]pyrimidin-3-yl)amino)thiophene-2-carboxamide] | 110 nM | 52.8 nM | > 7500 nM | 1.07 nM | – | – | –
13 | COCCn1cc(Nc2ncc3c(Nc4cc(NC(=O)CN5CC6CCC5CC6)cnc4C)nn(C)c3n2)cn1 [Example 127, 2-(2-azabicyclo[2.2.2]octan-2-yl)-N-(5-((6-((1-(2-methoxyethyl)-1H-pyrazol-4-yl)amino)-1-methyl-1H-pyrazolo[3,4-d]pyrimidin-3-yl)amino)-6-methylpyridin-3-yl)acetamide] | 2.6 nM | 1.4 nM | 6490 nM | 0.27 nM | – | – | –
14 | Cc1nn(C)cc1Nc1ncc2c(Nc3cc(C(=O)NCCN4CCC[C@@H]4C)cnc3C)nn(C)c2n1 [Example 160, (S)-5-((6-((1,3-dimethyl-1H-pyrazol-4-yl)amino)-1-methyl-1H-pyrazolo[3,4-d]pyrimidin-3-yl)amino)-6-methyl-N-(2-(2-methylpyrrolidin-1-yl)ethyl)nicotinamide] | 53.3 nM | 11.3 nM | > 7500 nM | 1.55 nM | – | – | –
15 | Cc1ncc(NC(=O)CN2CCCC2)cc1Nc1nn(C)c2nc(Nc3cnn(C)c3)ncc12 [Example 138, N-(6-methyl-5-((1-methyl-6-((1-methyl-1H-pyrazol-4-yl)amino)-1H-pyrazolo[3,4-d]pyrimidin-3-yl)amino)pyridin-3-yl)-2-(pyrrolidin-1-yl)acetamide] | 3.2 nM | 2.1 nM | > 7500 nM | 0.24 nM | – | – | –
16 | Cc1ncc(C(=O)NCCN2CCCC2(C)C)cc1Nc1nn(C)c2nc(Nc3ccc(=O)[nH]c3)ncc12 [Example 35, N-(2-(2,2-dimethylpyrrolidin-1-yl)ethyl)-6-methyl-5-((1-methyl-6-((6-oxo-1,6-dihydropyridin-3-yl)amino)-1H-pyrazolo[3,4-d]pyrimidin-3-yl)amino)nicotinamide] | 1650 nM | 4.7 nM | > 7500 nM | 0.68 nM | – | – | –
17 | CO[C@@H]1CCN(CC(=O)Nc2cnc(C)c(Nc3nn(C)c4nc(Nc5cnn(C)c5)ncc34)c2)C1 [Example 135, (R)-2-(3-methoxypyrrolidin-1-yl)-N-(6-methyl-5-((1-methyl-6-((1-methyl-1H-pyrazol-4-yl)amino)-1H-pyrazolo[3,4-d]pyrimidin-3-yl)amino)pyridin-3-yl)acetamide] | 9.5 nM | 2.8 nM | > 7500 nM | 0.41 nM | – | – | –
18 | Cc1ncc(C(=O)NCCN2CCCC2(C)C)cc1Nc1nn(C)c2nc(Nc3cnn4c3OCCC4)ncc12 [Example 163, 5-((6-((6,7-dihydro-5H-pyrazolo[5,1-b][1,3]oxazin-3-yl)amino)-1-methyl-1H-pyrazolo[3,4-d]pyrimidin-3-yl)amino)-N-(2-(2,2-dimethylpyrrolidin-1-yl)ethyl)-6-methylnicotinamide] | > 2000 nM | 805 nM | > 7500 nM | 86.4 nM | – | – | –
19 | Cc1ncc(C(=O)NCCN2C3CCC2CC3)cc1Nc1nn(C)c2nc(Nc3cnn(C)c3)ncc12 [Example 153, N-(2-(7-azabicyclo[2.2.1]heptan-7-yl)ethyl)-6-methyl-5-((1-methyl-6-((1-methyl-1H-pyrazol-4-yl)amino)-1H-pyrazolo[3,4-d]pyrimidin-3-yl)amino)nicotinamide] | 113 nM | 1.3 nM | > 7500 nM | 0.26 nM | – | – | –
20 | CC(=O)Nc1cccc(Nc2ncc3c(Nc4cc(C(=O)NCCN5CCCC5(C)C)cnc4C)nn(C)c3n2)c1 [Example 98, 5-((6-((3-acetamidophenyl)amino)-1-methyl-1H-pyrazolo[3,4-d]pyrimidin-3-yl)amino)-N-(2-(2,2-dimethylpyrrolidin-1-yl)ethyl)-6-methylnicotinamide] | 723 nM | 12 nM | > 7500 nM | 1.98 nM | – | – | –
